Source: patent EP1652839A2, “Drug efflux pump inhibitor” (priority 1999, dated 2001)

System: Pseudomonas aeruginosa PAM 1723 strain highly expressing the drug efflux pump
Experiment: Effect of combinational use with an antimicrobial agent on multidrug resistant Pseudomonas aeruginosa (broth culture, transmittance and turbidity readout)
Format: cell-based
Settings: minimum concentration of compound required to enhance antibacterial activity, MHB, 1 × 10^6 CFU/ml; for Combination with AZT: azthreonam (AZT) at 1/8 or less of the minimum inhibitory concentration, combinational use for 18 hours; for Combination with LVFX: levofloxacin (LVFX) at 1/8 or less of the minimum inhibitory concentration, combinational use for 7.5 hours
Description: Test Example 1: Effect of combinational use with an antimicrobial agent on multidrug resistant Pseudomonas aeruginosa
As multidrug resistant Pseudomonas aeruginosa, Pseudomonas aeruginosa PAM 1723 strain highly expressing the drug efflux pump was used. As antimicrobial drugs for the combinational uses, levofloxacin (LVFX) as a quinolone antibacterial agent and azthreonam (AZT) as a monobactam antibiotic were used.
Each of the compounds shown in Table 1 with Example No., which falls within the compounds of the present invention, was subjected to the measurement of its minimum concentration (µg/ml) that was required to enhance the antibacterial activity of the antibacterial agent when the test compound was used in combination with the antibacterial drug applied at a concentration of 1/4, or 1/8 or less of the minimum inhibitory concentration against the PAM 1723 strain. […] As for levofloxacin, effects were indicated as combinational uses for 7.5 hours, and as for azthreonam, effects as combinational uses for 18 hours was indicated. The Müller-Hinton broth (MHB, Difco) was used as a medium, and the inoculated amount of the bacteria was 1 × 10^6 CFU/ml. Effects were determined by optically measuring the transmittance of the bacterial culture with time, and visually observing the turbidity of the medium.

`CC(C)c1csc(/C=C/c2cncc(NC(=O)Cc3ccccc3C(=O)O)c2)n1` [Example 17, 2-[2-(5-[(E)-2-(4-Isopropyl-1,3-thiazol-2-yl)-1-ethenyl]-3-pyridylamino)-2-oxoethyl]benzoic acid] was tested, and the “Combination with AZT” value was 1.25 µg/mL and the “Combination with LVFX” value was 0.63 µg/mL.
In the case of `CC(C)c1nc(/C=C/c2cccc(NC(=O)Cc3ccccc3C(=O)O)c2)sc1N` [Example 5, 2-{2-[3-((E)-2-{5-Amino-4-isopropyl-1,3-thiazol-2-yl}-1-ethenyl)amino]-2-oxoethyl}benzoic acid], the “Combination with AZT” value is reported as 20 µg/mL and the “Combination with LVFX” value is reported as 10 µg/mL.
In the case of `O=C(Cc1ccccc1C(=O)O)Nc1cccc(C2CC2c2nc(-c3ccccc3)cs2)c1` (centres unmarked) [Example 11, 2-(2-Oxo-2-{3-[2-(4-phenyl-1,3-thiazol-2-yl)cyclopropyl]anilino}ethyl)benzoic acid], the “Combination with AZT” value is reported as 40 µg/mL and the “Combination with LVFX” value is reported as over 40 µg/mL.
`CC(C)c1csc(COc2cc(N)cc(NC(=O)Cc3ccccc3C(=O)O)c2)n1` [Example 14, 2-(3-Amino-5-((4-isopropyl-1,3-thiazol-2-yl)methoxy)anilino-2-oxoethyl)-benzoic acid] was tested, and the “Combination with AZT” value was 10 µg/mL and the “Combination with LVFX” value was 10 µg/mL.
For `CC(C)c1csc(/C=C/c2cncc(NC(=O)[C@H]3OC(C)(C)O[C@@H]3C(=O)O)c2)n1` [Example 15, (4S,5S)-5-[(5-[(E)-2-(4-Isopropyl-1,3-thiazol-2-yl)-1-ethenyl]-3-pyridyl-amino)carbonyl]-2,2-dimethyl-1,3-dioxolane-4-carboxylic acid], the “Combination with AZT” value was 40 µg/mL and the “Combination with LVFX” value was 20 µg/mL.
In the case of `CC(C)c1cccc(COc2cccc(NC(=O)Cc3ccccc3C(=O)O)c2)n1` [Example 9, 2-(2-3-[(6-Isopropyl-2-pyridyl)methoxy]anilino-2-oxoethyl)benzoic acid], the “Combination with AZT” value is reported as 2.5 µg/mL and the “Combination with LVFX” value is reported as 0.63 µg/mL.
In the case of `O=C(Cc1ccccc1C(=O)O)Nc1cccc(/C=C/c2nc(-c3ccccc3)cs2)c1` [Example 1, 2-(2-Oxo-2-3-[(E)-2-(4-phenyl-1,3-thiazol-2-yl)-1-ethenyl]anilinoethyl)-benzoic acid], the “Combination with AZT” value is reported as 1.25 µg/mL and the “Combination with LVFX” value is reported as “<=0.63 µg/ml”.
In the case of `O=C(Cc1ccccc1C(=O)O)Nc1cccc(C(=O)Nc2nc(-c3ccccc3)cs2)c1` [Example 12, 2-(2-Oxo-2-(3-((4-phenyl-1,3-thiazol-2-yl)amino)carbonylanilino)ethyl)-benzoic acid], the “Combination with AZT” value is reported as 20 µg/mL and the “Combination with LVFX” value is reported as over 40 µg/mL.
For `CC(C)c1nsc(COc2cc(NC(=O)Cc3ccccc3C(=O)O)c(F)cc2F)n1` [Example 13, 2-(2-2,4-Difluoro-5-[(3-isopropyl-1,2,4-thiadiazol-5-yl)methoxy]anilino-2-oxoethyl)benzoic acid], the “Combination with AZT” value was 1.25 µg/mL and the “Combination with LVFX” value was “<=0.63 µg/ml”.
With `O=C(Cc1ccccc1C(=O)O)Nc1cccc(/C=C/c2nc(-c3ccncc3)cs2)c1` [Example 8, 2-[2-Oxo-2-(3-(E)-2-[4-(4-pyridyl)-1,3-thiazol-2-yl]-1-ethylanilino)ethyl]-benzoic acid] the “Combination with AZT” value was 2.5 µg/mL and the “Combination with LVFX” value was 0.63 µg/mL.
In the case of `O=C(Cc1ccccc1C(=O)O)Nc1cccc(/C=C/c2nc3ccccc3o2)c1` [Example 7, 2-(2-3-[(E)-2-(1,3-Benzoxazol-2-yl)-1-ethenyl]anilino-2-oxoethyl)benzoic acid], the “Combination with AZT” value is reported as 5 µg/mL and the “Combination with LVFX” value is reported as 2.5 µg/mL.
In the case of `O=C(Cc1ccccc1C(=O)O)Nc1cccc(OCc2ccc3ccccc3n2)c1` [Example 2, 2-{2-Oxo-2-[3-(2-quinolylmethoxy)anilino]ethyl}benzoic acid], the “Combination with AZT” value is reported as 5 µg/mL and the “Combination with LVFX” value is reported as 20 µg/mL.
`O=C(Cc1ccccc1C(=O)O)Nc1cccc(/C=C/c2ccc(-c3ccccc3)o2)c1` [Example 4, 2-[2-Oxo-2-{3-[(E)-(5-phenyl-2-furyl)-1-ethenyl]anilino}ethyl]benzoic acid] was tested, and the “Combination with AZT” value was 2.5 µg/mL and the “Combination with LVFX” value was 10 µg/mL.
`CC(C)c1csc(/C=C/c2cccc(NC(=O)Cc3ccccc3C(=O)O)n2)n1` [Example 18, 2-[2-(6-[(E)-2-(4-Isopropyl-1,3-thiazol-2-yl)-1-ethenyl]-2-pyridylamino)-2-oxoethyl]benzoic acid] was tested, and the “Combination with AZT” value was 20 µg/mL and the “Combination with LVFX” value was 10 µg/mL.
`COC(=O)c1cc(NC(=O)Cc2ccccc2C(=O)O)cc(OCc2nc(C(C)C)cs2)c1` [Example 16, 2-(3-((4-Isopropyl-1,3-thiazol-2-yl)methoxy)-5-(methoxycarbonyl)anilino)-2-oxoethylbenzoic acid] was tested, and the “Combination with AZT” value was 160 µg/mL and the “Combination with LVFX” value was 160 µg/mL.
With `CC(C)c1nc(/C=C/c2cccc(NC(=O)Cc3ccccc3C(=O)O)c2)sc1Cl` [Example 3, 2-(2-3-[(E)-2-(4-Isopropyl-5-chloro-1,3-thiazol-2-yl)-1-ethenyl]anilino-2-oxoethyl)benzoic acid] the “Combination with LVFX” value was “<=2.5 µg/ml”.
For `O=C(Cc1ccccc1C(=O)O)Nc1cccc(/C=C/c2nc3cccnc3s2)c1` [Example 6, 2-(2-Oxo-2-{3-[(E)-2-(pyrido[3,2-d][1,3]thiazol-2-yl)-1-ethenyl]anilino}ethyl)benzoic acid], the “Combination with AZT” value was 5 µg/mL and the “Combination with LVFX” value was 20 µg/mL.
In the case of `O=C(Cc1ccccc1C(=O)O)Nc1cccc(CCc2nc(-c3ccccc3)cs2)c1` [Example 10, 2-(2-Oxo-2-{3-[2-(4-phenyl-1,3-thiazol-2-yl)ethyl]anilino}ethyl)benzoic acid], the “Combination with AZT” value is reported as 2.5 µg/mL and the “Combination with LVFX” value is reported as 20 µg/mL.
